Assay results from patent publication US8741951B2, “Non-steroidal compounds for androgen receptor modulation” (CNR—Consiglio Nazionale delle Ricerche, priority 2009, dated 2014).
Entries after “also recorded” stand apart in the source; their conditions may differ.

Tests used:
LNCaP cells = experiment: SRB in vitro chemosensitivity assay, LNCaP; type: cell-based
Protocol: The cell lines were maintained as a monolayer at 37° C. and subcultured weekly. Culture medium was composed of RPMI 1640 supplemented with 10% fetal calf serum and 1% glutamine (Mascia Brunelli s.p.a., Milan, Italy). Cells were used in the exponential growth phase in all the experiments.
Compounds were dissolved in acetone or DMSO (AITES) ([…]) and stored at −20° C. The cell culture containing acetone at the highest concentration was used as the control.
(§1) Sulforhodamine B (SRB) assay was used according to the method by Skehan et al. (JNCI, 1990). Briefly, cells were collected by trypsinization, counted and plated at a density of 5,000 cells/well in 96-well flat-bottomed microtiter plates (100 μl of cell suspension/well). In the chemosensitivity assay, experiments were run in octuplicate, and each experiment was repeated three times. The optical density (OD) of cells was determined at a wavelength of 490 nm by a colorimetric plate reader.
(§2) If ODtreated is above ODzero, treatment has induced a cytostatic effect, whereas if ODtreated is below ODzero, cell killing has occurred. The ODzero depicts the cell number at the moment of drug addition, the ODcontrol reflects the cell number in untreated wells and the ODtreated reflects the cell number in treated wells on the day of the assay.
FIGS. 2-11 show the cytotoxic activity of the derivative compounds of the invention on the LNCaP and LNCaP-AR cell lines. The authors examined the antitumour activity of the compounds for which the synthesis is described above, in the hormone-sensitive prostate cancer cell line LNCaP and in its derivative cell line LNCaP-AR, expressing high level of AR and with hormone refractory prostate cancer (HRPC) features. The novel compounds were tested at the increasing concentrations of […], 0.2, 2.0, and 20.0 μM. The highest dose used was chosen on the basis of the clinically achievable peak plasma concentration reported in the literature for bicalutamide (Cockshott I D. Clin Pharmacokinet. 2004; 43(13): 855-78). After 144-hr exposure time the cytotoxic effect of the molecules was calculated according to the method of Monks et al. (Monks A, Scudiero D, Skehan P, et al. Feasibility of a high-flux anticancer drug screen using a diverse panel of cultured human tumor cell lines. J Natl Cancer Inst. 1991; 83: 757-66.)

[1] = system: normal stem cells derived from human peripheral blood stem cells; experiment: Colony-forming cell assay (GM-CFU); type: cell-based
Protocol: The colony-forming cell assay was used as previously described [Matta M R, Mangianti S, Rizzi S, Ratta M, Campanini E, Fortuna A, et al. Pharmacological purging of minimal residual disease from peripheral blood stem cell collections of acute myloblastic leukaemia patients: preclinical studies. Exp Hematol 1997; 25:1261-1269]. In brief, for each molecule, 5×10^4 cells were plated in duplicate in a complete culture medium (MethoCult H4434, StemCell Technologies, Vancouver, Canada) containing different concentrations (0.2, 2, and 20 μmol/l) of the compound. After 14 days of incubation in a humidified atmosphere of 5% CO2 at the temperature of 37° C., granulocyte macrophage colony-forming unit (GM-CFU) aggregates of more than 50 cells were counted. Control cells were incubated under the same conditions but in drug-free medium.

PC-3 cell line = experiment: SRB cytotoxicity, PC-3; type: cell-based, human; conditions: PC-3 (no AR), 144 h, up to 20 μM
Protocol: FIGS. 16-25: cytotoxic effect of compounds (R)-XXIII-2, (R)-XXIII-3, (R)-XXIII-4, (R)-XXIII-5, (R)-XXIII-6, (R)-XXIII-7, (R)-XXIII-8, (R)-XXIII-9, (R)-XXIII-10, (R)-XXIV-9 on PC-3 and DU-145 cell lines at different concentration (0.02, 0.2, 2, 20 μM) after 144 h exposure. On the x-axis is reported the concentration, while on the y-axis is reported the inhibition of the net growth (% net growth).
as §1, §2

With `N#Cc1ccc(NC(=O)[C@](O)(Cc2cccs2)CS(=O)(=O)c2ccc(F)cc2)cc1C(F)(F)F` [(R)-XXIII-6] the GI50 (LNCaP cells; Homo sapiens, LNCaP, 144 h) was 8.9 µM, the LC50 (LNCaP cells; LNCaP cells, 144 h exposure, up to 20 μM) was “n.r” and the “cytotoxic effect (cytostatic / cytocidal), in words” value (LNCaP cells; LNCaP, 144 h, up to 20 μM) was “suppress completely the cell growth”. The “inhibition of clonogenic growth of normal stem cells (mielotoxicity), in words” value ([1]; 0.2, 2, 20 μmol/l, 14 days) was “does not seem to exert significant mielotoxicity; also recorded: weak cytostatic activity”, the GI50 ([1]; hematopoietic precursors, highest concentration tested 20 μmol/l) was “not being able to reach GI50 value” and the “cytotoxic activity, in words” value (PC-3 cell line) was “negligible cytotoxic activity”.
